# From US20150346599A1, “PHOTO-DESTROYABLE QUENCHER AND ASSOCIATED PHOTORESIST COMPOSITION, AND DEVICE-FORMING METHOD” (Rohm and Haas Electronic Materials LLC, priority 2014, published 2015)
# Experiments:
# [1] = Water absorption (hygroscopicity): water weight gain of the solid; type: physicochemical; details: for Weight Gain relative to Reference (%): 1 millimole solid in open vial in 4 liter vessel with 100 milliliters exposed water, 18 hours, reference triphenylsulfonium camphorsulfonate; for Matter State After Exposure to Water: after 18 hours exposure to water vapour
# Method: Compounds that absorb atmospheric moisture may cause inaccurate amount additions into formulations and are also difficult to handle. […] To quantify this characteristic, 1 millimole of each solid was placed in an open vial and enclosed in a 4 liter vessel containing 100 milliliters of exposed water. The weight of each vial was prerecorded and reweighed 18 hours later to determine the water weight gain.
# [2] = Shelf life testing: compound stability in solution by 1H NMR peak integration; details: 100 millimolar in deuterated dimethylsulfoxide; for Compound Purity (%) 0 days / Compound Purity (%) 3 days / Compound Purity (%) 14 days: 1H NMR at 25° C.
# Method: Compound stability was monitored by peak integration using ^1H NMR at 25° C. with relaxation delay set to 5 seconds on a 300 Megahertz Varian NMR spectrometer. Compound purity was calculated using the following formula: 100−((sum impurity peaks)/((total impurity peaks)+(total purity peaks))*100).
Compound,Weight Gain relative to Reference (%) [1],Matter State Before Exposure to Water [1],Matter State After Exposure to Water [1],Compound Purity (%) 0 days [2],Compound Purity (%) 3 days [2],Compound Purity (%) 14 days [2],Hygroscopicity (in words) [1],Compound stability (in words) ([2]; up to 14 days)
"Cc1cc(-[s+]2c3ccccc3c3ccccc32)cc(C)c1OCC(=O)OC1(C)C2CC3CC(C2)CC1C3.[O-]c1c(F)c(F)c(F)c(F)c1F [Example 6, 5-(3,5-Dimethyl-4-(2-(((1R,3S,5r,7r)-2-methyladamantant-2-yl)oxy)-2-oxoethoxy)phenyl)-5H-dibenzo[b,d]thiophen-5-ium 2,3,4,5,6-pentafluorophenolate]",−43%,Solid,–,–,–,–,–,–
"5-(4-(tert-Butyl)phenyl)-5H-dibenzo[b,d]thiophen-5-ium 2,3,4,5,6-pentafluorophenolate [Example 5]",−29%,Solid,Solid,–,–,–,–,–
"5-Phenyl-5H-dibenzo[b,d]thiophen-5-ium 2,3,5,6-tetrafluorophenolate [Example 3]",29%,Solid,Solid,–,–,–,–,–
triphenylsulfonium camphorsulfonate [reference compound],–,Solid,Solid,100%,100%,100%,–,–
"5-Phenyl-5H-dibenzo[b,d]thiophen-5-ium 3,5-bis(trifluoromethyl)-phenolate [Example 4]",−14%,Solid,Solid,–,–,–,–,–
"5-Phenyl-5H-dibenzo[b,d]thiophen-5-ium 2,3,4,5,6-pentafluorophenolate [Example 2]",43%,Solid,Solid,–,–,–,hygroscopic,–
Triphenylsulfonium pentafluorophenolate [Example 1],29%,Solid,–,100%,100%,100%,–,substantially more stable than triphenylsulfonium phenolate
